Several values for one entry are separate records, joined by “and”; a condition that tells them apart may be missing. Identical values can stand only once.
Columns and labels:
plasma extravasation = assay: Plasma extravasation (Evans blue in bladder), oral gavage, wild-type male mice; assay type: in vivo, wild-type (WT) C57/BL6 male mice; conditions: for inhibition of plasma extravasation at % (compared to vehicle controls): after 64 minutes
Excerpt: In vivo experiments in both wild-type (WT) C57BL/6J mice and C1-inhibited knock out (C1 INH KO) mice measured pharmacodynamic efficacy by the ability of CFMQ to block plasma extravasation, which is causative to edema, the most important symptom requiring treatment in HAE subjects. This plasma extravasation model has been used extensively in the literature to investigate the efficacy of bradykinin receptor antagonists. (Han et al., “Increased vascular permeability in C1 inhibitor-deficient mice mediated by the bradykinin type 2 receptor,” J Clin Invest, 2002 April; 109(8): 1057-1063.)
The uptake and effective blocking of plasma extravasation of CFMQ (HGT3711) was examined following oral administration in wild-type (WT) C57/BL6 male mice (n=4/dose group). Mice received a single oral gavage of CFMQ (HGT3711) (10 μL/g) at 3.0 or 10 mg/kg. Blood samples were taken at 20 and 60 minutes post-dose. Following oral administration CFMQ (HGT3711) administration and prior to the terminal time point, mice received an IV injection of Evans blue (EB) dye (30 mg/kg) and were sacrificed. Similar to the IV study, EB concentration in the formamide extract was determined spectrophotometrically (μg EB per milligram of tissue) and efficacy was determined by inhibiting the accumulation of EB in the bladder.

[1] = Cross-over PK, IV and PO, cynomolgus monkeys; assay type: in vivo, male cynomolgus monkey
Description: A cross-over PK (pharmacokinetic) analysis was conducted in cynomolgus monkey. Two fasted male monkeys in each dose group received a single 1.0 mg/kg dose of CFMQ (HGT3711) by either IV (intravenous) or PO (oral) administration, with a 7-day washout period between each dose. The dose concentration was 1.0 mg/mL with a dose volume of 1.0 mL/kg. Blood samples were collected via the femoral vein at 0.083 (5 min), 0.25 (15 min), 0.5 (30 min), 1, 1.5, 2, 3, 4, 6, 8, 18 and 24 hours post-dose. Plasma concentrations of CFMQ (HGT3711) were determined by LC-MS/MS and concentrations below the limit of quantitation (2.5 ng/mL) were assigned a value of zero for pharmacokinetic analysis. Following oral administration of CFMQ (1 mg/kg), the concentration of CFMQ in plasma was below the limit of quantitation (BLQ=<2.5 ng/ml) at each sampling time point, preventing assessment of pharmacokinetic properties of CFMQ after oral administration in monkeys in this study. Table 11 summarizes the average PK properties for IV and PO dosed groups.

[2] = male, cynomolgus monkey, plasma, IV (1 mg/kg), Mean

## Cc1cc(Cl)c(COc2cccc3c(-n4cc(F)cn4)cc(C)nc23)c(Cn2cccc(C#N)c2=O)n1 [CFMQ, 1-((4-Chloro-3-(((4-(4-fluoro-1H-pyrazol-1-yl)-2-methylquinolin-8-yl)oxy)methyl)-6-methylpyridin-2-yl)methyl)-2-oxo-1,2-dihydropyridine-3-carbonitrile]
Plasma extravasation; oral 3.0 mg/kg, 4 minutes post dose
  inhibition of plasma extravasation to % (compared to vehicle controls): 56%
Plasma extravasation; oral 3.0 mg/kg, 24 minutes post dose
  inhibition of plasma extravasation to % (compared to vehicle controls): 58%
Plasma extravasation; oral 3.0 mg/kg
  inhibition of plasma extravasation at % (compared to vehicle controls): 72%
Plasma extravasation; oral 10 mg/kg, 4 minutes post dose
  inhibition of plasma extravasation to % (compared to vehicle controls): 14%
Plasma extravasation; oral 10 mg/kg, 24 minutes post dose
  inhibition of plasma extravasation to % (compared to vehicle controls): 21%
Plasma extravasation; oral 10 mg/kg
  inhibition of plasma extravasation at % (compared to vehicle controls): 75%
[1]; IV 1 mg/kg
  Vz as fold of the total body water (0.69 L/kg): 4.32 fold
  systemic clearance as % of monkey hepatic blood flow (2.62 L/hr/kg): 57.63%
[1]; IV (1 mg/kg), Mean
  ACU(0-∞): 693.99 μg/L*hr
[1]; IV (1 mg/kg), Mean, 1 mg/kg
  CLz: 25.2 ± 6.83 mL/min/kg and 25.2 mL/min/kg
  t1/2z: 1.40 ± 0.24 h and 1.40 h
[1]; [2]
  AUC(0-t): 679 ng·h/mL
  Cmax: 410 ng/mL
  Tmax: 0.23 h
[1]; male, cynomolgus monkey, plasma, IV (1 mg/kg), Mean, read-out: MRT(0-∞)
  MRT inf: 1.77 h
[1]; male, cynomolgus, cynomolgus monkey, plasma, IV (1 mg/kg), Mean
  Cmax: 410 ± 107 ng/mL
[1]; male, cynomolgus, cynomolgus monkey, plasma, IV (1 mg/kg), Mean, read-out: Vz
  Vd: 2.98 ± 0.55 L/kg
[1]; oral 1 mg/kg, at each sampling time point (below limit of quantitation)
  concentration of CFMQ in plasma: < 2.5 ng/mL
[1]; oral 1 mg/kg, monkey
  oral bioavailability: no bioavailability

Reference: US20160030416A1, “METHODS OF TREATING B2-BRADYKININ RECEPTOR MEDIATED ANGIOEDEMA” (SHIRE HUMAN GENETIC THERAPIES, INC., priority 2013, published 2016)
